Assay results taken from paper PMC6085350, “Small molecule inhibitors of RAS-effector protein interactions derived using an intracellular antibody fragment” (Nature Communications, 2018).
“Also recorded” adds a separate entry of the source.

Key:
PI3KC2 = assay: Kinase panel (KinaseProfiler), first PI3KC2 line; assay type: biochemical, human; settings: PI3KC2 (first of two lines), 10μM
Method: Experiments were performed by Eurofins Pharma Discovery Services. The KinaseProfiler™ assay protocol guide can be downloaded from their website: www.eurofins.com/discoveryservices. The guide contains information on the buffer conditions, substrate and reference inhibitor blank used for each kinase.
Supplementary Table 3. Assessment of potential interaction of Abd-7 with a human kinase
Kinase % kinase activity in
A panel of 14 Kinases (relevant to the RAS pathway) has been screened against Abd-7
(10μM) and the kinase activity was measured. […] of activity was observe for all
function of the selected and RAS relevant kinase proteins.

[1] = molecular target: T1, KRAS^G12V-GppNHp + scFv complex (Homo sapiens, UniProt P01116, G12V); assay: waterLOGSY NMR competition with anti-RAS scFv; assay type: binding
T1 construct: GST (N); made in house; host or cells: E. coli
Method: The waterLOGSY NMR method[35] was used to measure RAS ligand interaction. WaterLOGSY experiments were conducted at a ^1H frequency of 600 MHz using a Bruker Avance spectrometer equipped with a BBI probe. All experiments were conducted at 298 K, 3 mm diameter NMR tubes with a sample final volume of 200 µl was used in all experiments. Solutions were buffered using an H2O 10 mM PBS, 5 mM MgCl2 buffer corrected to pH 7.4. The sample preparation is exemplified as follows, the compound (10 µl of a […] solution in DMSO-d6) was added to an eppendorf before sequential addition of the H2O PBS buffer (163.6 µl), D2O (20 µl), and protein (6.4 µl, 311.8 µM). The resulting solution was spun to ensure full mixing and transferred to a 3 mm NMR tube before running the experiment. For a competition experiment using Y6-scFv or VH, the preparation was carried out in a similar manner; the compound (10 µl of a 10 mM solution in DMSO-d6) was added to an eppendorf before sequential addition of the H2O PBS buffer (146.4 µl), D2O (20 µl), protein (6.4 µl, 311.8 µM) and Y6-ScFv (17.2 µl, 116.6 µM) with a ratio of 5.5:1:1. The resulting solution was spun and transferred to a 3 mm NMR tube before the run. […]
Supplementary Figure 3: Abd-2 WaterLOGSY NMR with and without anti RAS-scFV Abd-2 was analyzed by waterLOGSY. […]

HRASG12V-GTPγS = molecular target: T2, HRASG12V-GTPγS (Homo sapiens, UniProt P01112, G12V); assay: waterLOGSY NMR titration for Kd; assay type: binding
T2 construct: expression of HRAS (1-166) HRAS^G12V or KRAS^G12V cDNA cloned into the pGEX-2T vector; GST (N); made in house; host or cells: E. coli C41(DE3)
Method: The waterLOGSY NMR method[35] was used to measure RAS ligand interaction. WaterLOGSY experiments were conducted at a ^1H frequency of 600 MHz using a Bruker Avance spectrometer equipped with a BBI probe. All experiments were conducted at 298 K, 3 mm diameter NMR tubes with a sample final volume of 200 µl was used in all experiments. Solutions were buffered using an H2O 10 mM PBS, 5 mM MgCl2 buffer corrected to pH 7.4. The sample preparation is exemplified as follows, the compound (10 µl of a […] solution in DMSO-d6) was added to an eppendorf before sequential addition of the H2O PBS buffer (163.6 µl), D2O (20 µl), and protein (6.4 µl, 311.8 µM). The resulting solution was spun to ensure full mixing and transferred to a 3 mm NMR tube before running the experiment. […]
NMR spectra from the Abd-2 titration ranging from 50 to 400μM compound. The dissociation constant of Abd-2 binding to HRASG12V-GTPγS was determined from the curve generated by plotting the reduction of the NMR signal from a selected peak (depicted in green) during the compound titration against the protein. […]

`COc1nc(-c2cccc3c2OCCO3)ccc1Nc1ccc(CN(C)C)cc1` [Abd-7] was tested, and the “% kinase activity in the presence of Abd-7” value (PI3KC2) was 102%.
In the case of `O=C(NCC1COc2ccccc2O1)c1ccco1` (stereo not shown) [Abd-2], the “binding to KRAS^G12V-GppNHp in the presence of anti-RAS scFv (waterLOGSY)” value [1] is reported as “no longer binds; also recorded: no binding”, the ligand efficiency (HRASG12V-GTPγS) is reported as 0.26 and the Kd (HRASG12V-GTPγS; waterLOGSY titration 50 to 400 μM compound, single experimental analysis, read-out: Kd (dissociation constant)) is reported as 235 µM.
